Patent US9766241B2, “PGC-1beta-protein-function regulator, mitochondria-function regulator, anti-obesity agent, and screening method therefor” (priority 2012, dated 2017)
One block for each compound: values may come before it. Where a SMILES comes first, the peptide text is derived from it. The star is where a group is joined. Cbz = O=C(OCc1ccccc1)*

Assays:
[1] = system: mitochondria in adipose tissue cells; experiment: mitochondria in adipose tissue of mice given LS-102 (electron micrographs); assay type: in vivo, C57BL/6J mice; conditions: 50 mg/kg body weight per day intraperitoneally, fifty seventh day, vs DMSO, FIG. 18
Method: 50 mg/kg body weight of LS-102 per day or solvent (DMSO) as a control was administered intraperitoneally to 7 to 8-week-old C57BL/6J mice to observe adipose tissue slices of the mice of fifty seventh day after the administration using a microscope. […] Magnifications of the electron microscope were 2,500 folds and 10,000 folds and the white bars indicate scale bars (2 μm in the 2,500 folds and 500 nm in the 10,000 folds).

[2] = system: PGC-1β; experiment: PGC-1β protein and mRNA level in treated HEK 293 cells; assay type: cell-based
Method: Firstly, synoviolin knock down was performed by siRNA in HEK 293 cells. Synoviolin siRNA was prepared in accordance with already reported article (see, Yamasaki, S., et al. (2007). Cytoplasmic destruction of p53 by the endoplasmic reticulum-resident ubiquitin ligase ‘Synoviolin’. EMBO J 26, 113-122.). Transfection of siRNA into cells was performed in accordance with a protocol with Lipofectamine 2000 (Invitrogen, Corporation).
When a protein level of the PGC-1β was investigated as a confirmation, the protein level of the PGC-1β was doubled in LS-102 treated cells. On the other hand, the expression of PGC-1β mRNA was not changed by the LS-102 treatment.

[3] = biological target: T1, binding between synoviolin and PGC-1β (Homo sapiens, UniProt Q86TM6, E545G); experiment: in vitro binding assay between synoviolin and PGC-1β (Western blot)
T1 construct: GST fusion synoviolin which lack transmembrane domain (GST syno ΔTM); made in house
Method: In order to investigate an influence on PGC-1β functions by inhibitor of E3 ubiquitin ligase activity of synoviolin, an effect on inhibition of binding between the synoviolin and the PGC-1β was firstly investigated. Specifically, in a usual binding assay using MBP-PGC-1β-His protein and GST-Syno ΔTM protein, LS-102 (PARMACOPIEA, Corporation) was added and these proteins were incubated for 12 hours. Then, these proteins were separated by SDS-PAGE of 12% gel concentration, and Western blot was performed. Anti-GST antibody diluted 2500 folds were used as a primary antibody, and anti-rat HRP diluted 10000 folds was used as a secondary antibody.
In order to obtain a substance which inhibits the binding between synoviolin and PGC-1β, with respect to the substances shown in the following table 2 included in screening library relating to E3 ubiquitin ligase, in order to examine influence on the binding between synoviolin and PGC-1β, in vitro binding assays similar to the examples 3 to 6 were performed. The results were shown in FIGS. 11-1, 11-2, 11-3, and 11-4. In this example, 2 μg of PGC-1β (see FIG. 4) and 2 μg of GST-Syno ΔTM (see FIG. 6) were used.
The binding assay was performed using the following assay system. 2 μg of MBP-PGC-1β His (1-367aa) and 2 μg of the modified synoviolin fused to GST were bound for 12 hours in a buffer (20 mM Tris-HCl pH 8.0, 100 mM NaCl, 1 mM EDTA. 0.1% NP-40, 5% glucose 1, and protease inhibitors) to detect PGC-1β using anti-PGC-1β antibody.

[4] = system: PGC-1β; experiment: PGC-1β protein and mRNA level in skin fibroblasts from syno cKO mice (Western blot, real-time PCR); assay type: cell-based, mouse
Method: Skin fibroblasts from syno CKO mice were cultivated in DMEM medium and treated by tamoxifen (Tam) or solvent (DMSO) for 48 hours. Cell extracts or total RNA were collected, each was used for western blot and real-time PCR, respectively.
Further, in order to investigate whether […] was involved in synoviolin-mediated degradation of PGC-1β in cells, after the treatment by tamoxifen or solvent in the above experiment, 10 μM of MG-132, which is a proteasome inhibitor, was added and treated for two hours, and then, similar experiment was performed.

[5] = system: PPRE ×3-TK-luc reporter (PGC-1β coactivator function); experiment: Luciferase assay with PPRE ×3-TK-luc reporter in HEK-293 cells; assay type: cell-based
Method: Specifically, control siRNA or Syno siRNA was temporarily transfected in HEK-293 cells. Reporter plasmid containing PPAR binding sites (PPRE ×3-TK-luc), CMV-β-gal expression construct, or siRNA was temporarily transfected in HEK-293 cells. After 16 hours, DMSO or Wy-14643 was treated for 6 hours, and then Luciferase assay was performed (FIG. 9B).
After 16 hours from the transfection, cells were treated with solvent (DMSO) or Wy-14643 for 6 hours and the Luciferase assay was performed.
The luciferase assay was performed similar to the example 9 except for using 5 μM of LS-102, 0.1 μM and 0.5 μM of 348, 0.1 μM and 5 μM of 349, and 5 μM of 351 and 355 instead of transfecting the Syno siRNA in the example 9. The same volume of DMSO, which is a solvent of each compound, was added as a control.

[6] = biological target: T2, PGC-1β ubiquitination by synoviolin (SYVN1) (Homo sapiens, UniProt Q86TM6); experiment: in vitro ubiquitination of PGC-1β by synoviolin (Western blot); assay type: biochemical; conditions: for inhibiting activity of the PGC-1β ubiquitination, concentration dependency: 1 μM and 10 μM, FIG. 21; for polyubiquitination of PGC-1β: compared to control group (DMSO), FIG. 11-4
T2 construct: MBP-Syno ΔTM-His means synoviolin in which transmembrane domain has been deleted; His tag (C)
Method: The ubiquitin assay was performed using the following assay system. E1-His 125 ng, UbcH5C 150 ng, MBP-SYVN1 ΔTM-His 150 ng, GST-PGC-1β (1-367 aa; GST-P5), and HA-ubiquitin (HA-Ub) 750 ng were reacted at 30° C. for 2 hours in a buffer (50 mM Tris-HCL pH 7.5, 5 mM MgCl2, 0.6 mM DTT, and 2 mM ATP) to be ubiquitinated. Thereafter, the ubiquitinated proteins were bound to Glutathione Sepharose in GST washing buffer (50 mM Tris-HCl pH 7.5, 0.5 M NaCl, 1% Triton X, 1 mM EDTA, 1 mM DTT, and protease inhibitors). After washing with the GST washing buffer, ubiquitination of PGC-1β was detected by Western blotting using anti-PGC-1β antibody and anti-HA antibody.
In order to examine the concentration dependency of the inhibiting activity of test substances 348 and 349 in PGC-1β ubiquitination by synoviolin (SYVN1), the in vitro binding assay was performed in the same manner as described in Example 11.

[7] = system: mitochondria in HEK-293 cells; experiment: electron microscope observation of mitochondria in treated cells; assay type: cell-based; conditions: 1 μM, observed after 72 hours, FIG. 13
Method: The observation of mitochondria was performed similar to the example 9 except for observing after 72 hours from adding 1 μM of 348, 349, 351 and 355 to cells instead of transfecting the Syno siRNA in the example 9.

[8] = biological target: T3, synoviolin protein (Homo sapiens, UniProt Q86TM6); conditions: disclosed in JP 2008-74753 A; cited from earlier work
T3 construct: MBP-Syno ΔTM-His means synoviolin in which transmembrane domain has been deleted; His tag (C)

[9] = 2 μg PGC-1β and 2 μg GST-Syno ΔTM, FIGS. 11-1 to 11-4

T2 sequence (Q86TM6 246-617 limits assumed): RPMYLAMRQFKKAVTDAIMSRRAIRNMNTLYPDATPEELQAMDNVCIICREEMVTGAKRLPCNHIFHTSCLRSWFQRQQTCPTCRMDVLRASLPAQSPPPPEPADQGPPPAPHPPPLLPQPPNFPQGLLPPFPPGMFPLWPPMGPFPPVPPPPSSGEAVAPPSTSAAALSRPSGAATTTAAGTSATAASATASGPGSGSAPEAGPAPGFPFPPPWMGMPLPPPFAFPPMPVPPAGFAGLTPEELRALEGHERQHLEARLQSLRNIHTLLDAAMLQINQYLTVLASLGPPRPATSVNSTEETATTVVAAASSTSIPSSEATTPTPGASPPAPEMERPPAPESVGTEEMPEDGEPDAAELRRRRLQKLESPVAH
T1 sequence (Q86TM6 236-617 E545G): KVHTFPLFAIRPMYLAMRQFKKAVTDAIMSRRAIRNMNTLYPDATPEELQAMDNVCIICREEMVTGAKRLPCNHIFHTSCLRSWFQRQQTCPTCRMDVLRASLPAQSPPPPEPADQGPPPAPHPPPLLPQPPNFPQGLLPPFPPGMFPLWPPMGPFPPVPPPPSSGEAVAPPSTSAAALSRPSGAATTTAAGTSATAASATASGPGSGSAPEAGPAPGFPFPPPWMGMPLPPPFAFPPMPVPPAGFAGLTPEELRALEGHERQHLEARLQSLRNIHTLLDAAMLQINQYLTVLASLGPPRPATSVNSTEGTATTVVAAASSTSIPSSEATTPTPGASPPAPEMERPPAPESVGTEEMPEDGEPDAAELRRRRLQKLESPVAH
T3 sequence (Q86TM6 246-617 limits assumed): as the sequence (Q86TM6 246-617 limits assumed) above

- binding between synoviolin and PGC-1β ([3]; MBP-PGC-1β-His and GST-Syno ΔTM, incubated 12 hours, FIG. 10): has an effect on inhibition of binding
SMILES: CCNCCN(CC)c1nc(Nc2ccc3ncoc3c2)nc(N[C@@H](C)C2CCCCC2)n1 [LS-102]
- number and volume density of mitochondria in the adipose tissue cells [1]: increases in number and volume density of mitochondria
- protein level of the PGC-1β ([2]; LS-102 treated cells): doubled
- expression of PGC-1β mRNA ([2]; LS-102 treatment): not changed

SMILES: CC(C)C[C@@H](C=O)NC(=O)[C@H](CC(C)C)NC(=O)[C@H](CC(C)C)NC(=O)OCc1ccccc1 [MG-132] (Cbz-Leu-Leu-Leu-aldehyde)
- protein level of PGC-1β ([4]; 10 μM MG-132 for two hours, solvent-treated (DMSO-treated) skin fibroblasts): 1.6 folds
- protein level of PGC-1β, additive effect of tamoxifen treatment and MG-132 ([4]; 10 μM MG-132 for two hours, tamoxifen-treated skin fibroblasts): 1.1 folds

SMILES: CC/C(=C(\c1ccccc1)c1ccc(OCCN(C)C)cc1)c1ccccc1 [Tam]
- protein level of PGC-1β ([4]; Tam treatment 48 hours (induces synoviolin knockout) vs DMSO, skin fibroblasts of syno cKO mice): 1.4 folds
- mRNA level of PGC-1β ([4]; Tam treatment 48 hours, skin fibroblasts of syno cKO mice): no change

SMILES: Cc1cccc(Nc2cc(Cl)nc(SCC(=O)O)n2)c1C [Wy-1463, reference compound]
- PPRE ×3-TK-luc reporter activity ([5]; PPARα agonist treated for 6 hours vs DMSO, FIG. 9B): induced

SMILES: O=C1C=CC(=O)c2c(O)ccc(O)c21 [compound 348]
- binding between synoviolin and PGC-1β [3, 9]: inhibition of the binding
- inhibiting activity of the PGC-1β ubiquitination, concentration dependency [6]: in 10 μM is higher than that in 1 μM
- polyubiquitination of PGC-1β [6]: suppressed
- number and size of mitochondria [7]: proliferation (increase in the number) of mitochondria or increase in size of mitochondria has been observed

SMILES: O=C1C=CC(=O)c2c(O)cccc21 [compound 349]
- binding between synoviolin and PGC-1β [3, 9]: inhibition of the binding
- inhibiting activity of the PGC-1β ubiquitination, concentration dependency [6]: in 10 μM is higher than that in 1 μM
- polyubiquitination of PGC-1β [6]: suppressed
- number and size of mitochondria [7]: proliferation (increase in the number) of mitochondria or increase in size of mitochondria has been observed

- binding between synoviolin and PGC-1β [3, 9]: enhances the binding
SMILES: CC1=CC(=O)c2ccccc2C1=O [compound 351]
- luciferase activity ([5]; compounds instead of Syno siRNA (351: 5 μM), DMSO control, FIG. 12): lowered

- binding between synoviolin and PGC-1β [3, 9]: inhibition of the binding
SMILES: O=C1CCC(=O)c2c(O)cccc21 [compound 355]
- number and size of mitochondria [7]: proliferation (increase in the number) of mitochondria or increase in size of mitochondria has been observed

- binding between synoviolin and PGC-1β [3, 9]: inhibition of the binding
SMILES: O=C1C=CC(=O)c2c(Cl)ccc(O)c21 [compound 358]

SMILES: CC1=CC(=O)c2c(O)cccc2C1=O [plumbagin, 2-methyl-5-hydroxy-1,4-naphthoquinone]
- self-ubiquitination of synoviolin protein [8]: inhibit self-ubiquitination of synoviolin protein

SMILES: O=c1c(O)c(-c2ccc(O)c(O)c2)oc2cc(O)cc(O)c12 [quercetin, 2-(3,4-dihydroxyphenyl)-3,5,7-trihydroxy-4H-1-benzopyrano-4-on, reference compound]
- self-ubiquitination of synoviolin protein [8]: inhibit self-ubiquitination of synoviolin protein
- binding between synoviolin and PGC-1β [3, 9]: inhibition of the binding
